Laboratory results: patent US7323490B2, “Pyrrole compounds and uses thereof” (Ambit Biosciences Corporation, priority 2003, dated 2008)

Biological target: T1, PDE6D::HA11 fusion protein (Homo sapiens, UniProt O43924)
T1 construct: made in house; host or cells: coupled transcription-translation in rabbit reticulocyte lysate (pTNT vector)
Experiment: Binding assay with rabbit reticulocyte lysate-produced human PDE6D
Settings: absence or presence of 10 μM non-immobilized atorvastatin; dot blot

T1 sequence (O43924 whole entry, the tested form may be a part): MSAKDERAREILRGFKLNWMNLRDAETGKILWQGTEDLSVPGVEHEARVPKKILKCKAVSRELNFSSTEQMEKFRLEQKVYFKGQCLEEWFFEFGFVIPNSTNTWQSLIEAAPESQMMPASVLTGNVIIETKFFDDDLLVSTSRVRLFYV

`CC(C)c1c(C(=O)Nc2ccccc2)c(-c2ccccc2)c(-c2ccc(F)cc2)n1CC[C@@H](O)C[C@@H](O)CC(=O)O` [atorvastatin, reference compound] was tested, and the “binding of PDE6D::HA11 fusion protein to immobilized atorvastatin bait” value was “PDE6D bound to atorvastatin”.
